# Key:
# HmuS [1] = target: T1, HmuS (Bacteroides thetaiotaomicron, UniProt A0A0P0FP54); assay: cryo-EM structure at […] Å with heme; UV/vis hemin titration (Kd); HPLC turnover to PPIX; format: binding
# T1 construct: gene GAN91_17490; soluble HmuS without its predicted N- and C-terminal membrane-anchoring helices
# T1 sequence (A0A0P0FP54 28-1433 limits assumed): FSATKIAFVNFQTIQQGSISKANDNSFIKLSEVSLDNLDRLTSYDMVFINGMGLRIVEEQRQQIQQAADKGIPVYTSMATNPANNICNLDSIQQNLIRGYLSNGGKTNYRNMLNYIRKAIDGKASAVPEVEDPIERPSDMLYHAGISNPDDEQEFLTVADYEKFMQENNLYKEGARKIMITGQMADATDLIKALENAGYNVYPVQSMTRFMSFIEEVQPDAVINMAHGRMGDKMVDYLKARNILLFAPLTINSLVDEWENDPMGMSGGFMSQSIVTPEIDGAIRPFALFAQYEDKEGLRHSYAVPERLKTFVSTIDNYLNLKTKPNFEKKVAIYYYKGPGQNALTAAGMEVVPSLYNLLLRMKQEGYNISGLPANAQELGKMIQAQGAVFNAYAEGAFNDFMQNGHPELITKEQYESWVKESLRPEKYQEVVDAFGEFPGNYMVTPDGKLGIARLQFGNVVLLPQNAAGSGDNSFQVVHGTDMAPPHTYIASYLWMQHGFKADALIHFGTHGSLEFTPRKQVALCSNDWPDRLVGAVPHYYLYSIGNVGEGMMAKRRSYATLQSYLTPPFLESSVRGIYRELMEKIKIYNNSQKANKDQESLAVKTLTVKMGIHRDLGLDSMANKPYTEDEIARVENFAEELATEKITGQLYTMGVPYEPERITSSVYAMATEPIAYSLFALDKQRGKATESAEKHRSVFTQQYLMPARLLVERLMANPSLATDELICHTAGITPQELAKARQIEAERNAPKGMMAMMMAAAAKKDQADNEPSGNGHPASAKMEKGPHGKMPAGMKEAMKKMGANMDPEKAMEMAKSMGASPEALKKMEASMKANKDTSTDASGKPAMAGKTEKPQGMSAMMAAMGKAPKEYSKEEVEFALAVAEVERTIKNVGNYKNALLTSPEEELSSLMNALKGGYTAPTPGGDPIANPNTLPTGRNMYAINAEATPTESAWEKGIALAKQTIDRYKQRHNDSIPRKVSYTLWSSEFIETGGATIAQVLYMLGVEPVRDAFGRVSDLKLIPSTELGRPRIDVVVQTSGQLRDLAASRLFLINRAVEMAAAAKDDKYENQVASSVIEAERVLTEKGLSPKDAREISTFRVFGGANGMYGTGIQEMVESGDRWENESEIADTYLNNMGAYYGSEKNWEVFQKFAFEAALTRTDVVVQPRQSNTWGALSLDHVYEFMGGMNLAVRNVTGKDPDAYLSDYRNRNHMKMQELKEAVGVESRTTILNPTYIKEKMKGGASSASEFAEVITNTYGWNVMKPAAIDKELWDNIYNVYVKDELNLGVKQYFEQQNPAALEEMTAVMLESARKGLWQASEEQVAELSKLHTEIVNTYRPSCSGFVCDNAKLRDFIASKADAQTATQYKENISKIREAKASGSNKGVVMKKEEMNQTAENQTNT
# HmuS [2] = target: T2, HmuS (Bacteroides thetaiotaomicron, UniProt A0A0P0FP54, H538A); assay: UV/vis hemin titration of purified mutant; no turnover to PPIX; format: binding
# T2 construct: gene GAN91_17490; soluble HmuS without its predicted N- and C-terminal membrane-anchoring helices
compound,measurement,setting,value
C=CC1=C(C)C2=Cc3c(C=C)c(C)c4[n]3[Fe][n]3c(c(C)c(CCC(=O)O)c3=CC3=NC(=C4)C(C)=C3CCC(=O)O)=CC1=N2 [heme],Kd,HmuS [1],6 ± 6 µM
same,Kd,HmuS [2],1.4 ± 0.1 µM

# — paper PMC12583661, “Commensal gut bacteria employ de-chelatase HmuS to harvest iron from heme” (The EMBO Journal, 2025)
